Key:
MDA‐MB‐231 cells = experiment: Mitochondrial respiration analysis (Seahorse XF); assay type: cell-based, human; conditions: 24 h
Procedure: Cellular oxygen consumption and extracellular acidification rates (OCR and ECAR, respectively) were measured using Seahorse XFe96 (Agilent). MDA‐MB‐231 cells were plated (15 000 cells/well) in Seahorse XF96 plates (Agilent, 102416‐100) and allowed to adhere overnight. Cells were then treated with 25 or 50 nM TR‐107 for 24 h. On the day of Seahorse XF analysis, the growth medium was replaced with an XF base medium (Agilent, 103575‐100) supplemented with appropriate concentrations of TR‐107. After measurement of basal OCR/ECAR, 1 μM Oligomycin, 1 μM FCCP, and 1 μM Rotenone/Antimycin A (Agilent, 103015‐100) were added at indicated time points. OCR/ECAR were measured every 6.5 min for 73 min.

[1] = tested on: ClpP‐KO MDA‐MB‐231 and SUM159 cells; experiment: Cell growth in ClpP‐KO cells; assay type: cell-based, human; conditions: concentrations as high as 1 μM, up to 72 h
Description: sgRNA against human ClpP (Eurofins Genomics) was annealed and ligated into vector VDB783. This vector was transformed into DH5α cells and the presence of sgRNA was confirmed by colony PCR. Lentivirus was produced in HEK293T cells following transfection with plasmid and jetPRIME (PolyPlus) as previously described.[43] Clonal populations of SUM159 cells infected with dCas9‐KRAB lentivirus were clonally isolated to ensure dCas9‐KRAB expression. Isolated SUM159 cells were infected with ClpP sgRNA lentivirus followed by additional selection passage in growth media supplemented with […] puromycin.
Total cell counting assays were performed by seeding MDA‐MB‐231 cells (WT and ClpP‐KO; 4000 cells/well) or SUM159 (WT and ClpP‐KO; 1000 cells/well) in a 96‐well plate (Perkin Elmer, 6005050) and allowed to adhere overnight. The growth medium was then aspirated and replaced with 100 μl of growth medium supplemented with the drug at concentrations indicated in the figure or figure legends. Cells treated with vehicle control (0.1% DMSO, Sigma‐Aldrich D2650) were used as a negative control in all experiments, and cells were incubated with drug‐containing media for 24, 48, or 72 h as indicated in figure legends. […] The total cell number was then quantified using the Celigo Imaging Cytometer (Nexcelom).

[2] = tested on: MDA‐MB‐231 or SUM159 cells; experiment: Caspase‐3/7 activity assay and PARP cleavage; assay type: cell-based, human
Procedure: […]. The samples were collected in lysis buffer (50 mM HEPES [pH: 7.4], 5 mM CHAPS, and 5 mM DTT), and caspase activity was measured by monitoring fluorescence (ex/em: 360/460 nm) using a SpectraMax i3x (Molecular Devices).

C3(1)‐Tag cells = experiment: Cell viability assay of C3Tag cells; assay type: cell-based, murine; conditions: Mus musculus; 72 h, Hoechst stain, N = 2

N#Cc1cccc(CN2CCc3ncn(Cc4ccc(Cl)cc4)c(=O)c3C2)c1 [TR‐107] was tested, and the “decline in oxygen consumption rate (OCR)” value (MDA‐MB‐231 cells; ClpP‐KO MDA‐MB‐231, 25, 50 nM) was “not observed”, the “extracellular acidification (ECAR)” value (MDA‐MB‐231 cells; MDA‐MB‐231, 25, 50 nM) was “dose‐dependent increase” and the “oxygen consumption rate (OCR)” value (MDA‐MB‐231 cells; WT MDA‐MB‐231, 25, 50 nM) was “dose‐dependent decline”. For the same compound, the “cell growth in ClpP‐KO cells” value [1] was “not inhibited”, the “caspase‐3/7 activity” value ([2]; 24 h, 10 μM ONC201, 150 nM TR‐57, 100 nM TR‐107, 100 nM staurosporine) was “no increase” and the PARP cleavage ([2]; data not shown) was “no increase”. It also gave an IC50 (C3(1)‐Tag cells) of 0.022 µM.

From PMC9354705, “Characterization of TR‐107, a novel chemical activator of the human mitochondrial protease ClpP” (Pharmacology Research & Perspectives, 2022)
